The values below come from paper PMC6522510 (Nature Communications, 2019).

Where two headings read alike, the source gives them in different places. Where only a bound is given, the exact number is not on record here.

The nature of data set [1]: In vivo tolerability / maximum tolerated dose. On the set-up: species or system mice. Particulars: multiple doses, intermittent every 3 or 4-day schedule. The protocol: Next, we sought to compare the in vivo efficacy of gemcitabine and cabazitaxel to the standard of care, cytarabine. Due to limitations with tolerability, we have previously treated our AML xenograft models with low-dose cytarabine[13],[31]. […] Tolerability studies of gemcitabine at the same dose and schedule was not tolerated. […] Similarly, we performed tolerability of cabazitaxel using multiple doses on an intermittent every 3 or 4-day schedule; the only tolerable dose was 5 mg/kg.
All animal studies were performed in accordance with Animal Care and Use Programs under protocols approved by the Institutional Animal Care and Use Committee at OSU. We have complied with the relevant ethical considerations for animal research overseen by this committee. Mice were housed in a barrier facility. Non-tumor bearing Ly5.2 C57Bl/6 (BoyJ) mice were treated with 100, 120, or 140 mg kg^−1 gemcitabine on an intermittent schedule every 3 days for 3 weeks; 3 or 6 mg kg^−1 doses were used to evaluate daily for 5 days schedule. All doses were administered by intraperitoneal injection; tolerability was assessed by daily weights and observation of changes in body condition.
Supplementary Figure 12. Establish maximum tolerated dose of gemcitabine. Non-tumor bearing female BoyJ mice were treated on an intermittent schedule every 3 days for 3 weeks with 100, 120, or 140 m gkg-1 gemcitabine (Gem ) or treated on a daily schedule once a day for 5 days with 3 or 6 m gkg-1 Gem. Daily weight of treated mice; data reported as a percent weight loss from day 0. Arrow indicate treatment days.

The subject of data set [2] is THP-1. The class given is cell-based. As to conditions: Homo sapiens, 72 h, Cell Titer Glo. (In general: In ATP-based viability assays light output follows the ATP content of the culture.)
Data set [3] concerns MV4-11. Briefly: Secondary dose-response HTS, Cell Titer Glo. The class given is cell-based, human. As to conditions: Homo sapiens, MV4-11.
Data set [4] concerns CMS. The data set is classed as cell-based. As to conditions: Homo sapiens, 72 h, read-out: IC50 CMS.
The subject of data set [5] is M07e. Briefly: Secondary dose-response HTS, Cell Titer Glo. The data set is classed as cell-based, human. As to conditions: Homo sapiens, M-07e; secondary HTS, 72 h, average of triplicate; read-out: EC50 M07e.
In data set [6] the test system is U937. Briefly: Secondary dose-response HTS, Cell Titer Glo. The data set is classed as cell-based, human. As to conditions: Homo sapiens, U-937.
Data set [7] deals with AMKL patient-derived xenograft. Description: In vivo efficacy, survival. Also noted: species or system NSG-SGM3 mice. As to conditions: AMKL PDX, i.p.
The subject of data set [8] is U937. The class given is cell-based. Particulars: Homo sapiens, U-937; 72 h, Cell Titer Glo.
In data set [9] the test system is ML-2-luciferase/YFP+ xenograft. Briefly: In vivo efficacy, survival. On the set-up: species or system NSG mice. As to conditions: ML-2 xenograft, i.p.
Data set [10] deals with CMS. Description: Secondary dose-response HTS, Cell Titer Glo. The class given is cell-based, human. As to conditions: Homo sapiens, HTS.
Data set [11] relates to MV4-11. The class given is cell-based. As to conditions: Homo sapiens, 72 h, Cell Titer Glo.
Data set [12] relates to MOLM-13. Description: Secondary dose-response HTS, Cell Titer Glo. The data set is classed as cell-based, human. Particulars: Homo sapiens, MOLM-13.
Data set [13] relates to CMK. Description: Secondary dose-response HTS, Cell Titer Glo. The data set is classed as cell-based, human. As to conditions: Homo sapiens, CMK.
The test system of data set [14] is ML2. Briefly: Secondary dose-response HTS, Cell Titer Glo. The data set is classed as cell-based, human. Particulars: Homo sapiens, ML-2.
Data set [15] concerns Mll-PTD/wt:Flt3ITD/ITD primary transplants. Description: In vivo efficacy, survival. Also noted: species or system mice.
The subject of data set [16] is CHRF288-11. The data set is classed as cell-based. Particulars: Homo sapiens; 72 h, Cell Titer Glo; read-out: IC50 CHRF288-11.
Data set [17] deals with ML-2. The class given is cell-based. Particulars: Homo sapiens, 72 h, Cell Titer Glo.
The test system of data set [18] is MOLM-13. The data set is classed as cell-based. Particulars: Homo sapiens, 72 h, Cell Titer Glo.
Data set [19] concerns CHRF288-11. Briefly: Secondary dose-response HTS, Cell Titer Glo. The class given is cell-based, human. As to conditions: Homo sapiens.
The test system of data set [20] is CHRF288-11-luciferase/YFP+ xenograft. Briefly: In vivo efficacy, survival. Also noted: species or system NSG mice.
For data set [21], the system named is AMKL primary AML blast samples. Description: Ex vivo drug treatment of primary AML blasts on mesenchymal stromal cells. The class given is cell-based. Particulars: Homo sapiens; primary blasts on MSC, 96 h.
On the set-up of data set [22]: method as in Wang et al., Biol Blood Marrow Transplant 2014 and others. Particulars: ref Wang et al., Biol Blood Marrow Transplant 2014 and others, cited from earlier work.
Data set [23] has as its system CBFA2T3-GLIS2/JAK2V617F-induced AMKL model. Description: In vivo efficacy, survival. On the set-up: species or system mice. As to conditions: CBFA2T3-GLIS2/JAK2V617F-Luc+ quaternary transplants, i.p.
The subject of data set [24] is M07e. Briefly: cells. As to conditions: M-07e, 72 h, read-out: M07e. Also noted: species or system AML cell lines (8); Secondary HTS, 10-point dose-response in triplicate, Cell Titer Glo viability, four-parameter fit EC50.
Data set [25] concerns AML cell lines. As to conditions: human, 5 min.
The subject of data set [26] is Mll-PTD/wt:Flt3ITD/ITD secondary transplants. Description: In vivo efficacy, survival. On the set-up: species or system mice. Particulars: 100 mg kg−1 daily x 5 days, i.p.
Data set [27] deals with AML cell lines. Description: Intracellular drug and phosphorylated metabolites by HPLC with liquid scintillation counting. As to conditions: 2 h, 1 µM.
The test system of data set [28] is Mll PTD/wt:Flt3 ITD/ITD double knock-in primary transplant blasts (bone marrow, spleen). Briefly: Accumulation in primary murine blasts. The data set is classed as cell-based, mouse. Particulars: blasts from bone marrow or spleen. The protocol: Cells were washed twice with ice-cold PBS; cell pellets were solubilized in 400 µL 1 N NaOH and agitated (300 rpm) at room temperature for 2 h. Then samples were neutralized with […] 1 M HCl; a 25 µL aliquot of lysate was used to estimate protein concentration using a Pierce BCA protein assay kit (Thermo Scientific). Total radioactivity was measured by a Tri-Carb 4810TR liquid scintillation counter (Perkin-Elmer) after mixing the sample with 4 mL of Emulsifier Safe (Perkin Elmer); the results were normalized to total protein content as measured by a Pierce BCA protein assay kit. Three independent experiments were performed in triplicate.
Bone marrow and splenocytes were isolated from mice transplanted with dKI AML and CG-V617 AMKL. Following red blood cells lysis, dKI AML leukemic blasts from vehicle treated mice were evaluated for accumulation of cytarabine and gemcitabine using the uptake assay described above.
Supplementary Figure 5. Accumulation of cytarabine and gemcitabine .
unlabeled and [3H]-cytarabine (Ara- C) or gemcitabine ( Gem ). Intracellular Ara- C, Gem ,
scintillation counting and normalized to protein levels. Representative chromatogram for
as disintegrations per minute (DPM) over complete run time. (c) Percentage of total
independent experiments (N=9). (d) Accumulation was determined in cell lysate of bone
double knock-in primary transplant recipient. […]

Where [29] appears, read: secondary high-throughput screen, read-out: average effective concentration, MV4-11.
[30] abbreviates: secondary high-throughput screen, read-out: average effective concentration, ML-2.

Regarding `CO[C@H]1C(=O)[C@]2(C)[C@@H](OC)C[C@H]3OC[C@@]3(OC(C)=O)[C@H]2[C@H](OC(=O)c2ccccc2)[C@]2(O)C[C@H](OC(=O)[C@H](O)[C@@H](NC(=O)OC(C)(C)C)c3ccccc3)C(C)=C1C2(C)C` [Cabazitaxel, cabazitaxel], the only tolerable dose in data set [1] amounted to 5 mg/kg. In addition, the IC50 was 4.4 nM in data set [2]; 6.3 nM in data set [4]; 0.8 nM in [8]; 1.5 nM in data set [11]; 2.9 nM in data set [16]; 1.6 nM in data set [17]. Also, the concentration for half-maximal inhibition (IC50) in data set [18] was 1.2 nM; in data set [21] it was greater than 50000 nM. Besides, the EC50 in data set [3] (secondary HTS, 72 h, average of triplicate, read-out: EC50 MV4-11) is 0.3 nM; in data set [3] (setting [29]) it was 0.34 nM; in data set [5], 1 nM; in data set [6] (secondary HTS, 72 h, average of triplicate, read-out: EC50 U937), 1 nM; in [10] (72 h, read-out: EC50 CMS), 1 nM; in data set [12] (secondary HTS, 72 h, average of triplicate, read-out: EC50 MOLM-13), 1 nM. The EC50 was found to be 1 nM in data set [13] (72 h, read-out: EC50 CMK); 1 nM in data set [14] (secondary HTS, 72 h, average of triplicate, read-out: EC50 ML2); 0.5 nM in data set [14] (setting [30]); 1 nM in data set [19] (secondary HTS, 72 h, average of triplicate, read-out: EC50 CHRF288-11). For the same compound, the Median survival was 62 days in data set [7] (5 mg kg−1 q4d); 82 days in data set [9] (5 mg kg−1 q4d); 60 days in [15] (mouse, in vivo, ip); 44 days in data set [20] (CHRF288-11 xenograft, 5 mg kg−1 q4d, i.p.); 40 days in data set [20] (CHRF288-11 xenograft, 5 mg kg−1 q4d, x 2 cycles, i.p.).

Regarding `Nc1ccn([C@@H]2O[C@H](CO)[C@@H](O)[C@@H]2O)c(=O)n1` [Cytarabine, cytarabine], the IC50 in [2] is 8810 nM; in [4] (Cell Titer Glo) it was 5370 nM; in data set [8] it was 11 nM; in data set [11], 1980 nM; in data set [16], 606 nM; in [17], 26 nM. The values for the IC50 in data set [18] and in [21] were 31 nM and 54 nM, respectively. The EC50 is 2600 nM in data set [3] (setting [29]); 290 nM in [6] (secondary high-throughput screen, U937, read-out: average effective concentration, U937); 290 nM in data set [10] (secondary high-throughput screen, CMS, read-out: average effective concentration, CMS); 300 nM in [12] (secondary high-throughput screen, read-out: average effective concentration, MOLM-13); 320 nM in [13] (secondary high-throughput screen, read-out: average effective concentration, CMK); greater than 10000 nM in data set [24]. Also, the EC50 came out at 100 nM in data set [14] (setting [30]) and 1900 nM in data set [19] (HTS, secondary high-throughput screen, CHRF288-11, read-out: average effective concentration, CHRF288-11). In data set [22] (biphasic), the “triphosphate elimination α half-life” value was 7 to 20 min. In addition, in [22] (biphasic), the “triphosphate elimination β half-life” value is 2 to 3 h. Besides, the Median survival is 56 days in [7] (50 mg kg−1 q4d); 29 days in data set [9] (50 mg kg−1 q4d); 63 days in [23] (50 mg kg−1 daily x 5 days); 80 days in data set [23] (100 mg kg−1 daily x 5 days); 50 days in data set [15] (Mll-PTD/wt:Flt3ITD/ITD primary transplants, 50 mg kg−1 q4d, i.p.); 26 days in data set [20] (CHRF288-11-Luc+ model, low-dose 6.25 mg/kg once daily for 5 days for 3 weeks). Also, the Median survival is 25 days in data set [20] (CHRF288-11 xenograft, 50 mg kg−1 q4d, i.p.) and 49 days in [26]. The “higher concentration of cytarabine giving nearly equivalent intracellular exposure to 1 µM gemcitabine” value in [25] (10 µM) is reported as roughly 10 fold. Also, the “uptake at 10 µM cytarabine compared to 1 µM cytarabine” value in [25] (10 µM) is recorded as 1.6–3.7 fold. In data set [25] (100 µM), the “uptake at 100 µM cytarabine compared to 1 µM cytarabine” value is 7–12 fold.

Regarding `Nc1ccn([C@@H]2O[C@H](COP(=O)(O)OP(=O)(O)OP(=O)(O)O)[C@@H](O)C2(F)F)c(=O)n1` [dFdCTP, gemcitabine triphosphate], the “cellular elimination half-life (biphasic)” value in data set [22] (higher cellular concentrations) was 15 to 24 h. Also, in [27] (AML cell lines), the “accumulation of dFdCTP compared to Ara-CTP” value was 7.3–61.2 fold. For the same compound, the “share of the total intracellular accumulation” value in data set [27] (all cell lines evaluated) is listed as 58–81%. Further, the “accumulation of dFdCTP versus Ara-CTP” value in data set [28] was 2.4–5.3 fold.

As usually defined, the IC50 is the concentration at which inhibition is half-maximal.
